Common to all, as to experiment: level (log10 ratio to DMSO vehicle control); higher = higher biomarker level / cell amount than vehicle control
Holding throughout (conditions): in DMSO

Compound in test [1]: O=S(=O)(F)C(F)(F)C(F)(F)C(F)(F)C(F)(F)C(F)(F)C(F)(F)C(F)(F)C(F)(F)F [Perfluorooctanesulfonyl fluoride]
As to the method:
(§1)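 BioMAP Diversity Plus panel of 12 human primary cell co-culture systems (3C, 4H, LPS, SAg, BT, BF4T, BE3C, CASM3C, HDF3CGF, KF3CT, MyoF, Mphg). Compounds were added 1 h before stimulation and left for 24 h (MyoF 48 h; BT 72 h for soluble read-outs or 6 d for IgG). Biomarkers were read by ELISA, cytotoxicity by SRB, PBMC viability and proliferation by Alamar Blue. Each well value was divided by the mean of 8 DMSO control wells on the same plate and log10 transformed; duplicate blinded samples were tested at 4 concentrations.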

Compound in test [2]: FC(F)(F)C(F)(F)C(F)(F)C(F)(F)C(F)(F)C(F)(F)CC1CO1 [3-(Perfluorohexyl)-1,2-epoxypropane]
Here is the method: as §1

Compound in test [3]: O=C(O)C=CC(F)(C(F)(F)F)C(F)(F)F [3-(Perfluoroisopropyl)-2-propenoic acid]
Here is the method:
as §1

Compound in test [4]: NS(=O)(=O)C(F)(F)C(F)(F)C(F)(F)C(F)(F)C(F)(F)C(F)(F)F [Perfluorohexanesulfonamide]
Here is the method:
as §1

Compound in test [5]: O=C(O)C(F)(F)C(F)(F)C(F)(F)C(F)(F)C(F)(F)C(F)(F)C(F)(F)C(F)(F)C(F)(F)C(F)F [11-H-Perfluoroundecanoic acid]
Here is the method:
as §1

Compound in test [6]: C=C(C)C(=O)OCCC(F)(F)C(F)(F)C(F)(F)C(F)(F)C(F)(F)C(F)(F)F [6:2 Fluorotelomer methacrylate]
As to the method:
as §1

Compound in the next test: NC(=O)C(F)(F)C(F)(F)C(F)(F)C(F)(F)F [Nonafluoropentanamide]
As to the method:
as §1

± gives the standard deviation of the averaged measurements.

Regarding lMphg:CD69, the “level (log10)” value is -0.0075 ± 0.036 in test [1] (6700 nM); -0.0125 ± 0.029 in test [1] (20000 nM); -0.0175 ± 0.032 in test [1] (60000 nM); 0.004 ± 0.025 in test [2] (6700 nM); -0.007 ± 0.021 in test [2] (20000 nM); 0.0235 ± 0.049 in test [2] (60000 nM). The “level (log10)” value is -0.0265 ± 0.022 in test [3] (6700 nM); -0.021 ± 0.035 in test [3] (20000 nM); 0.0235 ± 0.049 in test [3] (60000 nM); -0.02 ± 0.023 in test [4] (6700 nM); -0.066 ± 0.02 in test [4] (20000 nM); -0.169 ± 0.0085 in test [4] (60000 nM). Moreover, the “level (log10)” value is -0.054 ± 0.0085 in test [5] (6700 nM); -0.039 ± 0.013 in test [5] (20000 nM); -0.0125 ± 0.049 in test [6] (6700 nM); -0.046 ± 0.0028 in test [6] (20000 nM); -0.0915 ± 0.019 in test [6] (60000 nM); -0.005 in the test with Nonafluoropentanamide (6700 nM). Also, the “level (log10)” value was -0.021 ± 0.016 in the test with Nonafluoropentanamide (20000 nM) and -0.028 ± 0.018 with Nonafluoropentanamide (60000 nM).
Take lMphg:CD106/VCAM-1: the “level (log10)” value in test [1] (6700 nM) was 0.009 ± 0.017; in test [1] (20000 nM) it was 0.0205 ± 0.012; in test [1] (60000 nM), -0.0125 ± 0.0092; in test [2] (6700 nM), 0.0025 ± 0.012; in test [2] (20000 nM) it was 0.005 ± 0.013; in test [2] (60000 nM), -0.0015 ± 0.018. Moreover, the “level (log10)” value in test [3] (6700 nM) was 0.001 ± 0.024; in test [3] (20000 nM), 0.0125 ± 0.005; in test [3] (60000 nM), 0.002 ± 0.034; in test [4] (6700 nM) it was -0.0155 ± 0.025; in test [4] (20000 nM), -0.012 ± 0.024; in test [4] (60000 nM) it was -0.0805 ± 0.018. Besides, the “level (log10)” value in test [5] (6700 nM) is -0.0065 ± 0.0035; in test [5] (20000 nM), 0.014 ± 0.023; in test [6] (6700 nM), -0.024 ± 0.013; in test [6] (20000 nM) it was -0.007 ± 0.021; in test [6] (60000 nM), -0.021 ± 0.011; in the test with Nonafluoropentanamide (6700 nM) it was -0.0255 ± 0.033. The “level (log10)” value in the test with Nonafluoropentanamide (20000 nM) is 0.0065 ± 0.028; with Nonafluoropentanamide (60000 nM), -0.012 ± 0.028.
lMphg:CXCL8/IL-8: the “level (log10)” value in test [1] (6700 nM) is 0.0275 ± 0.0078; in test [1] (20000 nM) it was 0.0145 ± 0.013; in test [1] (60000 nM), 0.0335 ± 0.011; in test [2] (6700 nM), -0.0215 ± 0.0035; in test [2] (20000 nM) it was -0.0125 ± 0.019; in test [2] (60000 nM) it was 0.04 ± 0.05. Besides, the “level (log10)” value in test [3] (6700 nM) is -0.0225 ± 0.0021; in test [3] (20000 nM), -0.006 ± 0.0028; in test [3] (60000 nM) it was 0.0415 ± 0.054; in test [4] (6700 nM), 0.05 ± 0.014; in test [4] (20000 nM) it was 0.083 ± 0.011; in test [4] (60000 nM), 0.146 ± 0.0085. Also, the “level (log10)” value in test [5] (6700 nM) is -0.0045 ± 0.0078; in test [5] (20000 nM), -0.031 ± 0.0042; in test [6] (6700 nM), 0.0275 ± 0.005; in test [6] (20000 nM), 0.0205 ± 0.0092; in test [6] (60000 nM), 0.0425 ± 0.026; with Nonafluoropentanamide (6700 nM), 0.012 ± 0.041. For the same test system, the “level (log10)” value with Nonafluoropentanamide (20000 nM) is 0.005 ± 0.02; in the test with Nonafluoropentanamide (60000 nM) it was 0.027 ± 0.014.
Regarding lMphg:IL-1alpha, the “level (log10)” value is 0.01 ± 0.013 in test [1] (6700 nM); -0.0025 ± 0.005 in test [1] (20000 nM); 0.0185 ± 0.019 in test [1] (60000 nM); -0.0115 ± 0.046 in test [2] (6700 nM); -0.013 ± 0.021 in test [2] (20000 nM); -0.0015 ± 0.011 in test [2] (60000 nM). Further, the “level (log10)” value in test [3] (6700 nM) was -0.0055 ± 0.037; in test [3] (20000 nM), 0.0095 ± 0.016; in test [3] (60000 nM), -0.0025 ± 0.012; in test [4] (6700 nM) it was 0.019 ± 0.052; in test [4] (20000 nM), 0.114 ± 0.016; in test [4] (60000 nM), 0.148 ± 0.0028. The “level (log10)” value is -0.024 ± 0.024 in test [5] (6700 nM); -0.008 ± 0.0014 in test [5] (20000 nM); -0.0445 ± 0.076 in test [6] (6700 nM); -0.03 ± 0.02 in test [6] (20000 nM); -0.0305 ± 0.069 in test [6] (60000 nM); 0.0035 ± 0.047 with Nonafluoropentanamide (6700 nM). In addition, the entries for the “level (log10)” value with Nonafluoropentanamide (20000 nM) and with Nonafluoropentanamide (60000 nM) were -0.0325 ± 0.047 and -0.017 ± 0.048, respectively.
Regarding lMphg:SRB-Mphg, the “level (log10)” value in test [1] (6700 nM) was 0.0065 ± 0.005; in test [1] (20000 nM), -0.004; in test [1] (60000 nM), 0.004 ± 0.0042; in test [2] (6700 nM) it was 0.0095 ± 0.0092; in test [2] (20000 nM), 0.0035 ± 0.012; in test [2] (60000 nM), 0.013 ± 0.0014. Further, the “level (log10)” value in test [3] (6700 nM) was 0.0005 ± 0.013; in test [3] (20000 nM), 0.004 ± 0.0085; in test [3] (60000 nM), 0.0075 ± 0.015; in test [4] (6700 nM), 0.002 ± 0.0028; in test [4] (20000 nM), -0.021 ± 0.0057; in test [4] (60000 nM) it was -0.0625 ± 0.013. In addition, the “level (log10)” value in test [5] (6700 nM) was 0.008 ± 0.011; in test [5] (20000 nM) it was -0.0095 ± 0.03; in test [6] (6700 nM), 0.01 ± 0.011; in test [6] (20000 nM) it was 0.0095 ± 0.0092; in test [6] (60000 nM), 0.0105 ± 0.0021; with Nonafluoropentanamide (6700 nM), 0.005 ± 0.0085. For the same test system, the entries for the “level (log10)” value with Nonafluoropentanamide (20000 nM) and with Nonafluoropentanamide (60000 nM) were -0.005 ± 0.014 and -0.012 ± 0.017, respectively.
Consider lMphg:sIL-10, for which the “level (log10)” value was -0.0605 ± 0.096 in test [1] (6700 nM); -0.0755 ± 0.11 in test [1] (20000 nM); 0.0005 ± 0.063 in test [1] (60000 nM); -0.0195 ± 0.029 in test [2] (6700 nM); -0.057 ± 0.0085 in test [2] (20000 nM); -0.059 ± 0.051 in test [2] (60000 nM). Moreover, the “level (log10)” value in test [3] (6700 nM) was -0.055 ± 0.064; in test [3] (20000 nM), -0.048 ± 0.017; in test [3] (60000 nM), -0.082 ± 0.0071; in test [4] (6700 nM), 0 ± 0.0071; in test [4] (20000 nM), -0.142 ± 0.017; in test [4] (60000 nM), -0.5835 ± 0.00071. Besides, the “level (log10)” value in test [5] (6700 nM) is -0.0875 ± 0.026; in test [5] (20000 nM) it was -0.0855 ± 0.0064; in test [6] (6700 nM), -0.01 ± 0.089; in test [6] (20000 nM) it was -0.0545 ± 0.035; in test [6] (60000 nM), 0.0135 ± 0.0035; with Nonafluoropentanamide (6700 nM), -0.0615 ± 0.044. For the same test system, the “level (log10)” value with Nonafluoropentanamide (20000 nM) is -0.0475 ± 0.00071; in the test with Nonafluoropentanamide (60000 nM), 0.0505 ± 0.073.
